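Method: 48-hour compound exposure of cells in 96-well plates, five concentrations, linear interpolation of endpoints. GI50 is the concentration that inhibits growth by half.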 Calls of active or inactive are those of the source. No stated cut-off is given here; in the data, active = GI50 up to about 1.1 µM and inactive = higher.
Experiments:
Experiment in all cases: DTP human tumour cell line panel, 48 h
786-0 = test system: 786-0
A549 = test system: A549
ACHN = test system: ACHN
BT-549 = test system: BT-549
CAKI-1 = test system: CAKI-1
CCRF-CEM = test system: CCRF-CEM
COLO 205 = test system: COLO 205
DU-145 = test system: DU-145
EKVX = test system: EKVX
HCC 2998 = test system: HCC 2998
HCT-116 = test system: HCT-116
HCT-15 = test system: HCT-15
HOP-62 = test system: HOP-62
HOP-92 = test system: HOP-92
HT-29 = test system: HT-29
Hs-578T = test system: Hs-578T
IGROV-1 = test system: IGROV-1
K562 = test system: K562
KM12 = test system: KM12
LOX IMVI = test system: LOX IMVI
M14 = test system: M14
MCF7 = test system: MCF7
MDA-MB-231 = test system: MDA-MB-231
MDA-MB-435 = test system: MDA-MB-435
MDA-N = test system: MDA-N
MOLT-4 = test system: MOLT-4
NCI-H23 = test system: NCI-H23
NCI-H460 = test system: NCI-H460
NCI-H522 = test system: NCI-H522
NCI/ADR-RES = test system: NCI/ADR-RES
OVCAR-3 = test system: OVCAR-3
OVCAR-4 = test system: OVCAR-4
OVCAR-5 = test system: OVCAR-5
OVCAR-8 = test system: OVCAR-8
PC-3 = test system: PC-3
RXF 393 = test system: RXF 393
SF-268 = test system: SF-268
SF-295 = test system: SF-295
SF-539 = test system: SF-539
SK-MEL-2 = test system: SK-MEL-2
SK-MEL-5 = test system: SK-MEL-5
SK-OV-3 = test system: SK-OV-3
SN12C = test system: SN12C
SNB-19 = test system: SNB-19
SNB-75 = test system: SNB-75
SR = test system: SR
SW-620 = test system: SW-620
TK-10 = test system: TK-10
U-251 = test system: U-251
UACC-257 = test system: UACC-257
UACC-62 = test system: UACC-62
UO-31 = test system: UO-31
A498 = test system: A498
HL-60 = test system: HL-60
NCI-H226 = test system: NCI-H226
RPMI-8226 = test system: RPMI-8226
SK-MEL-28 = test system: SK-MEL-28
T47D = test system: T47D

`COc1c(C)c(C/C=C(\C)CC/C=C(\C)CC/C=C(\C)CCC=C(C)C)c(OC)c(OC)c1OC` was tested, and the GI50 (786-0) was > 100 µM (inactive), the GI50 (A549) was > 100 µM (inactive) and the GI50 (ACHN) was > 100 µM (inactive). The GI50 (BT-549) was > 100 µM (inactive), the GI50 (CAKI-1) was > 100 µM (inactive) and the GI50 (CCRF-CEM) was > 100 µM (inactive). The GI50 (COLO 205) was > 100 µM (inactive), the GI50 (DU-145) was > 100 µM (inactive) and the GI50 (EKVX) was > 100 µM (inactive). The GI50 (HCC 2998) was > 100 µM (inactive), the GI50 (HCT-116) was > 100 µM (inactive) and the GI50 (HCT-15) was > 100 µM. For the same molecule, the GI50 (HOP-62) was > 100 µM (inactive), the GI50 (HOP-92) was > 100 µM (inactive) and the GI50 (HT-29) was > 100 µM (inactive). For the same molecule, the GI50 (Hs-578T) was > 100 µM (inactive), the GI50 (IGROV-1) was > 100 µM (inactive) and the GI50 (K562) was > 100 µM (inactive). The GI50 (KM12) was > 100 µM (inactive), the GI50 (LOX IMVI) was > 100 µM (inactive) and the GI50 (M14) was > 100 µM (inactive). For the same molecule, the GI50 (MCF7) was > 100 µM (inactive), the GI50 (MDA-MB-231) was > 100 µM (inactive) and the GI50 (MDA-MB-435) was > 100 µM (inactive). The GI50 (MDA-N) was > 100 µM (inactive), the GI50 (MOLT-4) was > 100 µM (inactive) and the GI50 (NCI-H23) was > 100 µM (inactive). The GI50 (NCI-H460) was > 100 µM (inactive), the GI50 (NCI-H522) was > 100 µM (inactive) and the GI50 (NCI/ADR-RES) was > 100 µM (inactive). For the same molecule, the GI50 (OVCAR-3) was > 100 µM (inactive), the GI50 (OVCAR-4) was > 100 µM (inactive) and the GI50 (OVCAR-5) was > 100 µM (inactive). The GI50 (OVCAR-8) was > 100 µM (inactive), the GI50 (PC-3) was > 100 µM (inactive) and the GI50 (RXF 393) was > 100 µM (inactive). For the same molecule, the GI50 (SF-268) was > 100 µM (inactive), the GI50 (SF-295) was > 100 µM (inactive) and the GI50 (SF-539) was > 100 µM (inactive). For the same molecule, the GI50 (SK-MEL-2) was > 100 µM (inactive), the GI50 (SK-MEL-5) was > 100 µM (inactive) and the GI50 (SK-OV-3) was > 100 µM (inactive). The GI50 (SN12C) was > 100 µM (inactive), the GI50 (SNB-19) was > 100 µM (inactive) and the GI50 (SNB-75) was > 100 µM (inactive). The GI50 (SR) was > 100 µM (inactive), the GI50 (SW-620) was > 100 µM (inactive) and the GI50 (TK-10) was > 100 µM (inactive). For the same molecule, the GI50 (U-251) was > 100 µM (inactive), the GI50 (UACC-257) was > 100 µM (inactive) and the GI50 (UACC-62) was > 100 µM (inactive). For the same molecule, the GI50 (UO-31) was > 100 µM (inactive).

In the case of `CCCCCCCCCCCCCCCCOCC(COP(=O)(O)OCC1OC(n2cc(CC)c(=O)[nH]c2=O)CC1O)OC(=O)CCCCCCCCCCCCCCC` (stereo unspecified), the GI50 (786-0) is reported as > 100 µM (inactive), the GI50 (A498) is reported as > 100 µM (inactive) and the GI50 (A549) is reported as > 100 µM (inactive). For the same molecule, the GI50 (ACHN) was > 100 µM (inactive), the GI50 (CAKI-1) was > 100 µM (inactive) and the GI50 (CCRF-CEM) was > 100 µM (inactive). The GI50 (COLO 205) was > 100 µM (inactive), the GI50 (DU-145) was > 100 µM (inactive) and the GI50 (EKVX) was > 100 µM (inactive). The GI50 (HCC 2998) was > 100 µM (inactive), the GI50 (HCT-116) was > 100 µM (inactive) and the GI50 (HCT-15) was > 100 µM. The GI50 (HL-60) was 52 µM (inactive), the GI50 (HOP-62) was > 100 µM (inactive) and the GI50 (HOP-92) was > 100 µM (inactive). For the same molecule, the GI50 (HT-29) was > 100 µM (inactive), the GI50 (Hs-578T) was > 100 µM (inactive) and the GI50 (IGROV-1) was > 100 µM (inactive). For the same molecule, the GI50 (K562) was > 100 µM (inactive), the GI50 (KM12) was > 100 µM (inactive) and the GI50 (LOX IMVI) was > 100 µM (inactive). The GI50 (M14) was > 100 µM (inactive), the GI50 (MCF7) was > 100 µM (inactive) and the GI50 (MDA-MB-231) was > 100 µM (inactive). The GI50 (MDA-MB-435) was > 100 µM (inactive), the GI50 (MOLT-4) was > 100 µM (inactive) and the GI50 (NCI-H226) was > 100 µM (inactive). For the same molecule, the GI50 (NCI-H23) was > 100 µM (inactive), the GI50 (NCI-H522) was > 100 µM (inactive) and the GI50 (NCI/ADR-RES) was > 100 µM (inactive). The GI50 (OVCAR-3) was > 100 µM (inactive), the GI50 (OVCAR-4) was > 100 µM (inactive) and the GI50 (OVCAR-5) was > 100 µM (inactive). The GI50 (OVCAR-8) was > 100 µM (inactive), the GI50 (PC-3) was > 100 µM (inactive) and the GI50 (RPMI-8226) was > 100 µM (inactive). The GI50 (RXF 393) was > 100 µM (inactive), the GI50 (SF-268) was > 100 µM (inactive) and the GI50 (SF-295) was > 100 µM (inactive). The GI50 (SF-539) was > 100 µM (inactive), the GI50 (SK-MEL-28) was > 100 µM (inactive) and the GI50 (SK-MEL-2) was > 100 µM (inactive). The GI50 (SK-OV-3) was > 100 µM (inactive), the GI50 (SN12C) was > 100 µM (inactive) and the GI50 (SNB-19) was > 100 µM (inactive). For the same molecule, the GI50 (SNB-75) was > 100 µM (inactive), the GI50 (SR) was > 100 µM (inactive) and the GI50 (SW-620) was > 100 µM (inactive). The GI50 (T47D) was > 100 µM (inactive), the GI50 (TK-10) was > 100 µM (inactive) and the GI50 (U-251) was > 100 µM (inactive). The GI50 (UACC-257) was > 100 µM (inactive), the GI50 (UACC-62) was > 100 µM (inactive) and the GI50 (UO-31) was > 100 µM (inactive).

From ChEMBL document CHEMBL1201862, “PubChem BioAssay data set” (2004)
